We go through 27 compounds from patent US20110009381A1, “SOLUBILIZED THIAZOLOPYRIDINES” (Sirtis Pharmaceuticals, Inc., priority 2007, published 2011).

This assay addresses T1, SIRT1 (Homo sapiens, UniProt Q96EB6).
T1 sequence (Q96EB6 1-747): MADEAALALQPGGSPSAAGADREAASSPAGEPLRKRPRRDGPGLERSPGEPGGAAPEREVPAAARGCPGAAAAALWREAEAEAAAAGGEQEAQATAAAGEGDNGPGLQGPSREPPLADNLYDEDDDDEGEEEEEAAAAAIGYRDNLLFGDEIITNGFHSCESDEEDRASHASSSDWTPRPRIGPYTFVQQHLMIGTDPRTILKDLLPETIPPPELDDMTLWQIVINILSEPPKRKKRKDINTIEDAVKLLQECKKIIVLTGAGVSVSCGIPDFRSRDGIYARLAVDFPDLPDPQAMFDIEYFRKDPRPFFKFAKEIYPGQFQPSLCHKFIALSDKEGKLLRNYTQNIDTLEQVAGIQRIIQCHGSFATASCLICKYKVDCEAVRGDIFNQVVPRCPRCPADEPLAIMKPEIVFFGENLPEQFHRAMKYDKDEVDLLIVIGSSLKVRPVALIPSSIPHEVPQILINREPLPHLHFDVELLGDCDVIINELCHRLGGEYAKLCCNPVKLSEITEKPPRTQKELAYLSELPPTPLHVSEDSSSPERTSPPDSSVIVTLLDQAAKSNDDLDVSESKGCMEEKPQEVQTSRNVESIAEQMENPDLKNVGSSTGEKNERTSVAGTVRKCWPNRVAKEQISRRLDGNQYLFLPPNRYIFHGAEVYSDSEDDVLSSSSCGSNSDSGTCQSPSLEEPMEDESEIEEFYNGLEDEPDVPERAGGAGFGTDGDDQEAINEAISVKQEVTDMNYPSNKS
Nature of the assay: Mass spectrometry based assay to identify modulators of SIRT1 activity (deacetylation of p53-based acetylated peptide substrate). The assay is classed as biochemical. As to conditions: 10 nM SIRT1, 0.5 μM peptide substrate, 120 μM βNAD+, 25 minutes at 25° C.; for EC1.5: SIRT1 activation. An excerpt: A mass spectrometry based assay was used to identify modulators of SIRT1 activity. The mass spectrometry based assay utilizes a peptide having 20 amino acid residues as follows: Ac-EE-K(biotin)-GQSTSSHSK(Ac)NleSTEG-K(5TMR)-EE-NH2 (SEQ ID NO: 1) wherein K(Ac) is an acetylated lysine residue and Nle is a norleucine. The peptide is labeled with the fluorophore 5TMR (excitation 540 nm/emission 580 nm) at the C-terminus. The sequence of the peptide substrate is based on p53 with several modifications. In addition, the methionine residue naturally present in the sequence was replaced with the norleucine because the methionine may be susceptible to oxidation during synthesis and purification.
The mass spectrometry assay is conducted as follows: 0.5 μM peptide substrate and 120 μM βNAD^+ is incubated with 10 nM SIRT1 for 25 minutes at 25° C. in a reaction buffer (50 mM Tris-acetate pH 8, 137 mM NaCl, 2.7 mM KCl, 1 mM MgCl2, 5 mM DTT, 0.05% BSA). Test compounds may be added to the reaction as described above. The SirT1 gene is cloned into a T7-promoter containing vector and transformed into BL21(DE3). After the 25 minute incubation with SIRT1, 10 μL of 10% formic acid is added to stop the reaction. Reactions are sealed and frozen for later mass spec analysis. Determination of the mass of the substrate peptide allows for precise determination of the degree of acetylation (i.e. starting material) as compared to deacetylated peptide (product).
A control for inhibition of sirtuin activity is conducted by adding 1 μL of 500 mM nicotinamide as a negative control at the start of the reaction (e.g., permits determination of maximum sirtuin inhibition). A control for activation of sirtuin activity is conducted using 10 nM of sirtuin protein, with 1 μL of DMSO in place of compound, to determine the amount of deacetylation of the substrate at a given timepoint within the linear range of the assay. This timepoint is the same as that used for test compounds and, within the linear range, the endpoint represents a change in velocity.
For the above assay, SIRT1 protein was expressed and purified as follows. The SirT1 gene was cloned into a T7-promoter containing vector and transformed into BL21(DE3). The protein was expressed by induction with 1 mM IPTG as an N-terminal His-tag fusion protein at 18° C. overnight and harvested at 30,000×g. Cells were lysed with lysozyme in lysis buffer (50 mM Tris-HCl, 2 mM Tris[2-carboxyethyl]phosphine (TCEP), 10 μM ZnCl2, 200 mM NaCl) and further treated with sonication for 10 min for complete lysis. The protein was purified over a Ni-NTA column (Amersham) and fractions containing pure protein were pooled, concentrated and run over a sizing column (Sephadex S200 26/60 global). The peak containing soluble protein was collected and run on an Ion-exchange column (MonoQ). Gradient elution (200 mM-500 mM NaCl) yielded pure protein. This protein was concentrated and dialyzed against dialysis buffer (20 mM Tris-HCl, 2 mM TCEP) overnight. The protein was aliquoted and frozen at −80° C. until further use.
Sirtuin modulating compounds that activated SIRT1 were identified using the assay described above and are shown below in Table 1. The EC1-5 values for the activating compounds are represented by A′ (EC1.5<250 nM), A (EC1.5≧250 nM and ≦1 uM), B (EC1.5>1 and ≦10 uM), or C (EC1.5>10 uM). The percent maximum fold activation is represented by A (Fold activation≧300%), B (Fold Activation≧150% and <300%), or C (Fold Activation<150%).

On to `O=C(Nc1ccccc1-c1nc2cccnc2s1)c1cc(Cl)nc(-c2ccccc2)n1` [Compound 8], for which the “FOLD ACT. (percent maximum fold activation)” value is recorded as “C (Fold Activation<150%)” and the EC1.5 result is “C (EC1.5>10 uM)”.

Regarding `COCCN(C)CCOc1cc(C(=O)Nc2ccccc2-c2nc3cccnc3s2)nc(-c2ccccc2)c1` [Compound 50], the “FOLD ACT. (percent maximum fold activation)” value is listed as “A (Fold activation≧300%)” and the EC1.5 entry was “A′ (EC1.5<250 nM)”.

For the compound `NCCCCNc1cc(C(=O)Nc2ccccc2-c2nc3cccnc3s2)nc(-c2ccccc2)n1` [Compound 87], the “FOLD ACT. (percent maximum fold activation)” value is “A (Fold activation≧300%)”; the EC1.5 result is “A (EC1.5≧250 nM and ≦1 uM)”.

With `C[C@@H]1CN(c2cc(C(=O)Nc3ccccc3-c3nc4cccnc4s3)nc(-c3ccccc3)n2)C[C@H](C)O1` [Compound 70], the “FOLD ACT. (percent maximum fold activation)” value was “B (Fold Activation≧150% and <300%)”; the EC1.5 result is “A (EC1.5≧250 nM and ≦1 uM)”.

`Cc1nc(NCCN(C)C)cc(C(=O)Nc2ccccc2-c2nc3cccnc3s2)n1` [Compound 28]: the “FOLD ACT. (percent maximum fold activation)” value is “A (Fold activation≧300%)”; the EC1.5 entry was “B (EC1.5>1 and ≦10 uM)”.

With `O=C(Nc1ccccc1-c1nc2cccnc2s1)c1cc(NCCNc2ccccc2)nc(-c2ccccc2)n1` [Compound 60], the “FOLD ACT. (percent maximum fold activation)” value is recorded as “C (Fold Activation<150%)” and the EC1.5 entry was “C (EC1.5>10 uM)”.

For `O=C(Nc1ccccc1-c1nc2ccncc2s1)c1cc(NCc2cccnc2)nc(-c2ccccc2)n1` [Compound 31], the “FOLD ACT. (percent maximum fold activation)” value was “B (Fold Activation≧150% and <300%)”; the EC1.5 entry was “A (EC1.5≧250 nM and ≦1 uM)”.

On to `COCCN(CCOC)c1cc(C(=O)Nc2ccccc2-c2nc3cccnc3s2)nc(-c2ccccc2)c1` [Compound 130], for which the “FOLD ACT. (percent maximum fold activation)” value was “A (Fold activation≧300%)” and the EC1.5 entry is reported as “A′ (EC1.5<250 nM)”.

On to `O=C(Nc1ccccc1-c1nc2ccncc2s1)c1cc(NCCN2CCCC2)nc(-c2ccccc2)n1` [Compound 56], for which the “FOLD ACT. (percent maximum fold activation)” value was “A (Fold activation≧300%)” and the EC1.5 result was “A′ (EC1.5<250 nM)”.

Turning to `O=C(Nc1ccccc1-c1nc2ccncc2s1)c1cc(N2CCNCC2)nc(-c2ccccc2)n1` [Compound 23], the “FOLD ACT. (percent maximum fold activation)” value is “A (Fold activation≧300%)” and the EC1.5 entry is recorded as “A′ (EC1.5<250 nM)”.

As for `CN(C)CCNc1cc(C(=O)Nc2ccccc2-c2nc3cccnc3s2)ncn1` [Compound 26], the “FOLD ACT. (percent maximum fold activation)” value is “A (Fold activation≧300%)”; the EC1.5 entry was “B (EC1.5>1 and ≦10 uM)”.

With `CC1(C)OCC(CNc2cc(C(=O)Nc3ccccc3-c3nc4cccnc4s3)nc(-c3ccccc3)n2)O1` (stereo not drawn) [Compound 96], the “FOLD ACT. (percent maximum fold activation)” value is recorded as “A (Fold activation≧300%)”; the EC1.5 result is “A (EC1.5≧250 nM and ≦1 uM)”.

Take `NCCCNc1cc(C(=O)Nc2ccccc2-c2nc3cccnc3s2)nc(-c2ccccc2)n1` [Compound 84]: the “FOLD ACT. (percent maximum fold activation)” value is given as “A (Fold activation≧300%)” and the EC1.5 result is on record as “A′ (EC1.5<250 nM)”.

With `O=C(Nc1ccccc1-c1nc2cccnc2s1)c1cc(O)cc(-c2ccccc2)n1` [Compound 34], the “FOLD ACT. (percent maximum fold activation)” value is “A (Fold activation≧300%)”; the EC1.5 result is “A (EC1.5≧250 nM and ≦1 uM)”.

Turning to `O=C(Nc1ccccc1-c1nc2cccnc2s1)c1cc(NC(CO)CO)nc(-c2ccccc2)n1` [Compound 69], the “FOLD ACT. (percent maximum fold activation)” value was “A (Fold activation≧300%)” and the EC1.5 result is “A′ (EC1.5<250 nM)”.

As for `O=C(Nc1ccccc1-c1nc2cccnc2s1)c1cc(OCCCCO)nc(-c2ccccc2)n1` [Compound 103], the “FOLD ACT. (percent maximum fold activation)” value is “B (Fold Activation≧150% and <300%)”; the EC1.5 entry is recorded as “C (EC1.5>10 uM)”.

On to `C[C@@H]1CN(CCOc2cc(C(=O)Nc3ccccc3-c3nc4cccnc4s3)nc(-c3ccccc3)c2)C[C@H](C)O1` [Compound 36], for which the “FOLD ACT. (percent maximum fold activation)” value is “A (Fold activation≧300%)” and the EC1.5 entry is given as “A′ (EC1.5<250 nM)”.

For `O=C(Nc1ccccc1-c1nc2cccnc2s1)c1cc(OC[C@@H](O)CO)nc(-c2ccccc2)n1` [Compound 108], the “FOLD ACT. (percent maximum fold activation)” value was “B (Fold Activation≧150% and <300%)”; the EC1.5 result is listed as “A′ (EC1.5<250 nM)”.

`CCN(CC)CCNc1cc(C(=O)Nc2ccccc2-c2nc3cccnc3s2)nc(-c2ccccc2)n1` [Compound 41]: the “FOLD ACT. (percent maximum fold activation)” value is recorded as “A (Fold activation≧300%)” and the EC1.5 entry is “A′ (EC1.5<250 nM)”.

`COCCN1CCN(c2cc(C(=O)Nc3ccccc3-c3nc4ccncc4s3)nc(-c3ccccc3)n2)CC1` [Compound 25]: the “FOLD ACT. (percent maximum fold activation)” value was “A (Fold activation≧300%)” and the EC1.5 entry is given as “A′ (EC1.5<250 nM)”.

For `CCOC(=O)CCNc1cc(C(=O)Nc2ccccc2-c2nc3cccnc3s2)nc(-c2ccccc2)n1` [Compound 43], the “FOLD ACT. (percent maximum fold activation)” value was “B (Fold Activation≧150% and <300%)”; the EC1.5 entry was “A (EC1.5≧250 nM and ≦1 uM)”.

For `O=C(Nc1ccccc1-c1nc2cccnc2s1)c1cc(N2CCOCC2)cc(-c2ccccc2)n1` [Compound 129], the “FOLD ACT. (percent maximum fold activation)” value is reported as “A (Fold activation≧300%)” and the EC1.5 entry is recorded as “A′ (EC1.5<250 nM)”.

With `O=C(Nc1ccccc1-c1nc2cccnc2s1)c1cc(CN2CCOCC2)nc(-c2ccccc2)n1` [Compound 10], the “FOLD ACT. (percent maximum fold activation)” value was “A (Fold activation≧300%)”; the EC1.5 entry was “A (EC1.5≧250 nM and ≦1 uM)”.

Turning to `O=C(Nc1ccccc1-c1nc2cccnc2s1)c1cc(N2CCOCC2)nc(-c2ccccc2)n1` [Compound 2], the “FOLD ACT. (percent maximum fold activation)” value was “B (Fold Activation≧150% and <300%)”; the EC1.5 entry was “A′ (EC1.5<250 nM)”.

As for `O=C(Nc1ccccc1-c1nc2cccnc2s1)c1cc(NCCCO)nc(-c2ccccc2)n1` [Compound 40], the “FOLD ACT. (percent maximum fold activation)” value is recorded as “A (Fold activation≧300%)” and the EC1.5 result was “A′ (EC1.5<250 nM)”.

Regarding `Cc1cccc(-c2nc(C(=O)Nc3ccccc3-c3nc4cccnc4s3)cc(N3CCOCC3)n2)c1` [Compound 148], the “FOLD ACT. (percent maximum fold activation)” value was “B (Fold Activation≧150% and <300%)”; the EC1.5 result was “A (EC1.5≧250 nM and ≦1 uM)”.

As for `O=C(Nc1ccccc1-c1nc2cccnc2s1)c1cc(N[C@@H]2CCCNC2)nc(-c2ccccc2)n1` [Compound 95], the “FOLD ACT. (percent maximum fold activation)” value is “A (Fold activation≧300%)” and the EC1.5 entry is “A′ (EC1.5<250 nM)”.
